Assay results taken from publication PMC9144492, “New Screening Protocol for Effective Green Solvents Selection of Benzamide, Salicylamide and Ethenzamide” (Molecules, 2022).

Tests used:
[1] = shake-flask solubility in aqueous binary mixtures of DMSO, DMF and 4FM; type: physicochemical; conditions: aqueous 4FM mixture, 4FM mole fraction 0.6; room temperature (Figure 4)
Procedure: In this study, the “shake-flask” procedure used in the previous studies was applied and it consists of the following steps. First, the mixtures (suspensions) containing saturated solution and undissolved solids were prepared in glass screw test tubes. Then the mixtures were incubated and agitated for 24 h at controlled temperature (298.15, 303.15, 308.15, or 313.15 K) and 60 rpm using Orbital Shaker ES-20/60 (Biosan, Riga, Latvia). At the next step, the temperature was still controlled, however, the agitation was turned off and suspensions were let to settle down for an hour. Then, the supernatant was filtrated using 0.22 μm PTFE syringe membrane filter. Nextly, 0.1 mL of the filtrate was diluted with 2 mL of methanol. The samples prepared in this way were protected against crystallization, as the concentration was low. 0.5 mL of the filtrate was used for density measurements. All equipment including automatic pipette tips, membrane filters, and syringes were preheated at the measurement temperature in order to avoid the solute precipitation. All “shake-flask” experiments were carried out in triplicate. The concentration in the samples was determined spectrophotometrically using the calibration curve method. […] All UV spectra were recorded using an A360 UV-VIS spectrophotometer (AOE Instruments, Shanghai, China).

[2] = solid residues analysis after shake-flask (DSC, FTIR-ATR); type: physicochemical; conditions: sediments after shake-flask in water and organic solvents, FTIR-ATR and literature
From the text: The equilibrium in the solid-liquid saturated systems is governed not only by the properties of solvents but also by the solid state including polymorphic or pseudopolymorphic transformations as well as solvates formation. […] For this reason, the sediments collected after the shake-flask experiments for water and studied organic solvents were examined using differential scanning calorimetry (DSC) and Fourier transform infrared spectroscopy–attenuated total reflectance (FTIR-ATR) techniques. The detailed characteristics of solid residues were provided in supplementary materials (see Figures S5–S10). In the case of solvate formation or polymorphic transformation, the absorption band shifts on the IR spectra are often related to new hydrogen bonding patterns. In the case of DSC thermograms, new phases can be detected by observing additional signals due to the heat transfer associated with polymorphic transition or pseudo-polymorph transformations. […] This conclusion is in good accord with already reported observation. According to Ouyang et al. (2019) benzamide solid form is not altered in contact with such solvents as water, methanol, ethanol, 1-propanol, isopropanol, 1-butanol, isobutanol, methyl acetate, ethyl acetate, butyl acetate, acetonitrile and acetone. In the case of salicylamide, the only polymorphic transformation observed so far was with the use of high pressure. […]
The solid residues obtained after “shake-flask” procedure were dried on air and used for IR spectrophotometric and DSC measurements. Infrared spectra were recorded using PerkinElmer (Waltham, MA, USA) spectrophotometer equipped with a diamond attenuated total reflection (ATR) device. DSC thermograms were recorded using DSC 6000 Perkin Elmer (Waltham, MA, USA) calorimeter (heating rate: 5 K/min, nitrogen flow: 20 mL/min) calibrated using indium and zinc reference standards provided by the manufacturer.

[3] = COSMO-RS solubility computation; conditions: acetic acid

In the case of `NC(=O)c1ccccc1O` [salicylamide], the “molar fraction solubility (xS)” value [1] is reported as 0.379 molar fraction, the “phase change of the solid in saturated solutions (polymorph / solvate)” value (shortened to “phase change … (polymorph / solvate)”) [2] is reported as “do not show a tendency to undergo phase changes” and the “mole fraction error of COSMO-RS computed solubility versus experiment” value [3] is reported as −60%.

For `CCOc1ccccc1C(N)=O` [ethenzamide], the “phase change … (polymorph / solvate)” value [2] was “do not show a tendency to undergo phase changes”.

In the case of `NC(=O)c1ccccc1` [benzamide], the “phase change … (polymorph / solvate)” value [2] is reported as “do not show a tendency to undergo phase changes”.
